Data on eight compounds can be found in patent US20170209445A1, “KINASE INHIBITORS” (Respivert Limited, priority 2014, published 2017).

The experiment deals with PBMCs. Nature of the experiment: LPS-induced IL-8 release in PBMC cells. In kind it is cell-based. The settings on record: Homo sapiens, LPS-stimulated PBMCs, read-out: IC50 Values for Inhibition of Cytokine Release PBMCs IL-8. How it is done: Peripheral blood mononuclear cells (PBMCs) from healthy subjects are separated from whole blood using a density gradient (Lymphoprep, Axis-Shield Healthcare). The PBMCs are seeded in 96 well plates and treated with compounds at the desired concentration for 2 hours before addition of 1 ng/mL LPS (Escherichia Coli 0111:B4 from Sigma Aldrich) for 24 hours under normal tissue culture conditions (37° C., 5% CO2). The supernatant is harvested for determination of IL-8 and TNFα concentrations by sandwich ELISA (Duo-set, R&D systems) and read on the fluorescence microplate reader (Varioskan® Flash, ThermoFisher Scientific).

For `COc1cc(Nc2ncc3cc(-c4cc(C(=O)Nc5cc(C(C)(C)C)cc(NS(C)(=O)=O)c5OC)ccc4C)ccc3n2)ccc1C(=O)NCCN1CCN(C)C(C)(C)C1` [14(al), 4-((6-(5-((5-(tert-Butyl)-2-methoxy-3-(methylsulfonamido)phenyl)carbamoyl)-2-methyl-phenyl)quinazolin-2-yl)amino)-2-methoxy-N-(2-(3,3,4-trimethylpiperazin-1-yl)ethyl)benzamide], the half-inhibitory concentration (IC50) is 8.3 nM. For `C#Cc1cc(Nc2ncc3cc(-c4cc(C(=O)Nc5cc(C(C)(C)C)cc(NS(C)(=O)=O)c5OC)ccc4C)ccc3n2)cc(C(=O)NCCOCCOC)c1` [14(m), N-(5-(tert-Butyl)-2-methoxy-3-(methylsulfonamido)phenyl)-3-(2-((3-ethynyl-5-((2-(2-methoxyethoxy)ethyl)carbamoyl)phenyl)amino)quinazolin-6-yl)-4-methylbenzamide] the value was 10.4 nM; for `COCCOCCOCCNC(=O)c1ccc(Nc2ncc3cc(-c4cc(C(=O)Nc5cc(C(C)(C)C)cc(NS(C)(=O)=O)c5OC)ccc4C)ccc3n2)cc1OC` [14(p), 4-((6-(5-((5-(tert-Butyl)-2-methoxy-3-(methylsulfonamido)phenyl)carbamoyl)-2-methylphenyl)quinazolin-2-yl)amino)-2-methoxy-N-(2-(2-(2-methoxyethoxy)ethoxy)ethyl)benzamide], 7.5 nM. For `COc1c(NC(=O)c2ccc(C)c(-c3ccc4nc(Nc5cccc(C(=O)NCCN6CCOCC6)c5)ncc4c3)c2)cc(C(C)(C)C)cc1NS(C)(=O)=O` [14(d), N-(5-(tert-Butyl)-2-methoxy-3-(methylsulfonamido)phenyl)-4-methyl-3-(2-((3-((2-morpholinoethyl)carbamoyl)phenyl)amino)quinazolin-6-yl)benzamide] the value was 8.3 nM; for `COc1c(NC(=O)c2ccc(C)c(-c3ccc4nc(Nc5cc(C#N)cc(OCCN6CCOCC6)c5)ncc4c3)c2)cc(C(C)(C)C)cc1NS(C)(=O)=O` [14(b), N-(5-(tert-Butyl)-2-methoxy-3-(methylsulfonamido)phenyl)-3-(2-((3-cyano-5-(2-morpholinoethoxy)phenyl)amino)quinazolin-6-yl)-4-methylbenzamide], 15.2 nM; for `COc1c(NC(=O)c2ccc(C)c(-c3ccc4nc(Nc5cc(C(=O)NCCN6CCOCC6)cc(C(F)(F)F)c5)ncc4c3)c2)cc(C(C)(C)C)cc1NS(C)(=O)=O` [14(u), N-(5-(tert-Butyl)-2-methoxy-3-(methylsulfonamido)phenyl)-4-methyl-3-(2-((3-((2-morpholinoethyl)carbamoyl)-5-(trifluoromethyl)phenyl)amino)quinazolin-6-yl)benzamide], 20.2 nM. To `COc1cc(Nc2ncc3cc(-c4cc(C(=O)Nc5cc(C(C)(C)C)cc(NS(C)(=O)=O)c5OC)ccc4C)ccc3n2)ccc1C(=O)NCCCN1CCCOCC1` [14(ab), N-(3-(1,4-Oxazepan-4-yl)propyl)-4-((6-(5-((5-(tert-butyl)-2-methoxy-3-(methyl-sulfonamido)phenyl)carbamoyl)-2-methylphenyl)quinazolin-2-yl)amino)-2-methoxybenzamide] belongs 5.4 nM. On to `COc1c(NC(=O)c2ccc(C)c(-c3ccc4nc(Nc5cccc(OS(C)(=O)=O)c5)ncc4c3)c2)cc(C(C)(C)C)cc1NS(C)(=O)=O` [14(a), 3-((6-(5-((5-(tert-Butyl)-2-methoxy-3-(methylsulfonamido)phenyl)carbamoyl)-2-methylphenyl)quinazolin-2-yl)amino)phenyl methanesulfonate], for which the IC50 came out at 31.1 nM.

The IC50 is the concentration that inhibits the measured activity by half.
